From patent US4175081A, “5-Substituted thiadiazole ureas” (priority 1977, dated 1979)

Key:
Bean (BN) [1] = assay: Pre-emergence herbicide test; assay type: in vivo, Phaseolus vulgaris var. Black Valentine; settings: Phaseolus vulgaris, 336 h, 8 lb/acre, two weeks after treatment
Procedure, shortened: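 Visual injury/control ratings were taken two weeks post-spray on sub-irrigated Phaseolus vulgaris var. Black Valentine. Pots were sown a day before treatment. Pre-emergence spray delivered 8 lbs actual compound per acre (or 4 lbs/acre) at 38 gallons per acre.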

[2] = tested on: variety of crops and weed species; assay: Pre- and post-emergence herbicide tests, overall assessment of Tables III-VI; assay type: in vivo; settings: data of Tables III-VI
Experimental: All crop and weed species were planted individually in 3' plastic pots containing potting soil. Four seeds each of corn, cotton, and snapbeans were seeded to a depth equal to the diameter of the seed. All other species were surface seeded and sprinkled with screened soil in an amount sufficient to cover the seed. Immediately after planting, all pots were watered by sub-irrigation in greenhouse trays. Pots for the pre-emergence phase were seeded one day before treatment.
Compounds were tested at rates of application equivalent to 8 lbs. of actual compound per acre in a spray volume of 38 gallons per acre. Spray hood constants required to deliver the above volume are as follows:
Two weeks after treatment, pre- and post-emergence injury or control was visually rated, and the results were as shown in the following tables. Pre-emergence data are provided in TABLE III and post-emergence data are provided in TABLE IV, for compounds having the formula illustrated in TABLE I. Correspondingly, pre-emergence and post-emergence data, respectively, are set forth in TABLES V AND VI, for compounds having the formula illustrated in TABLE II.

Cotton (CT) [3] = assay: Pre-emergence herbicide test; assay type: in vivo, Gossypium hirsutum var. DPL smooth leaf; settings: Gossypium hirsutum, 336 h, 8 lb/acre, two weeks after treatment
Procedure, shortened: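 Visual injury/control ratings were taken at two weeks post-spray. Pots seeded a day earlier received compound pre-emergence at 8 lbs/acre, or 4 lbs/acre, in a 38 gallon/acre spray volume, and were then held in the greenhouse, watered only from below.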

Barnyard grass (BG) [4] = assay: Post-emergence herbicide test; assay type: in vivo; settings: Echinochloa crus-galli, 336 h, two weeks after treatment; for pest or weed control at 8966.8 g/ha: 8 lb/acre
Procedure, shortened: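 Greenhouse pot-grown barnyard grass seedlings sprayed post-emergence at 8 lbs active compound per acre (some at 4 lbs/acre) in 38 gallons per acre, then sub-irrigated. Injury or control rated visually two weeks after treatment.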

Crabgrass (CG) [5] = assay: Post-emergence herbicide test; assay type: in vivo, Digitaria sanquinalis; settings: Digitaria sanguinalis, post-emergence, 336 h, two weeks after treatment; for pest or weed control at 8966.8 g/ha: 8 lb/acre
Procedure, shortened: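 Crabgrass (Digitaria sanquinalis) was surface seeded individually in 3' plastic pots of potting soil, covered with screened soil, and watered by sub-irrigation in greenhouse trays. Planting was staggered so seedlings reached the target stage together. Post-emergence sprays were applied in a hood with a removable belt and fixed nozzle, and control was visually rated two weeks after treatment.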

Johnson grass (JG) [6] = assay: Post-emergence herbicide test; assay type: in vivo, Sorgum helepense; settings: Sorghum halepense, 336 h, two weeks after treatment; for pest or weed control at 8966.8 g/ha: 8 lb/acre
Procedure, shortened: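 Visual injury or control scores taken 2 weeks after a post-emergence spray of pot-grown plants. Application was 8 lbs/acre (or 4 lbs/acre) in 38 gal/acre. Plants were held in the greenhouse with sub-irrigation only.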

Johnson grass (JG) [7] = assay: Pre-emergence herbicide test; assay type: in vivo, Sorgum helepense; settings: Sorghum halepense, 336 h, 8 lb/acre, two weeks after treatment
Procedure, shortened: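 Visual injury or control rating two weeks post-treatment, after pre-emergence spray of 8 or 4 lbs active per acre (38 gal/acre) onto pots sown the previous day. Greenhouse watering by sub-irrigation only.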

Bean (BN) [8] = assay: Post-emergence herbicide test; assay type: in vivo, Phaseolus vulgaris var. Black Valentine; settings: Phaseolus vulgaris, post-emergence, 336 h, two weeks after treatment; for pest or weed control at 8966.8 g/ha: 8 lb/acre
Procedure, shortened: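 Bean seedlings (Phaseolus vulgaris var. Black Valentine) were grown in potting soil in 3' pots until the primary leaves expanded. They were then sprayed under a hood with a removable belt and fixed nozzle, using 50 ml formulations. Afterward they were returned to the greenhouse and watered only by sub-irrigation. Percent control was judged visually two weeks after treatment.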

Turnip (TP) [9] = assay: Post-emergence herbicide test; assay type: in vivo, Brassica sp.; settings: Brassica rapa, post-emergence, 336 h, two weeks after treatment; for pest or weed control at 8966.8 g/ha: 8 lb/acre
Procedure, shortened: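 A greenhouse post-emergence herbicide test on turnip. Seeds were sown on the surface of potting soil in 3' plastic pots, lightly covered with screened soil and watered from below. Planting was timed so seedlings had 1 or 2 true leaves above the cotyledons at spraying, done in a hood with a fixed nozzle. Control or injury was scored by eye after two weeks.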

Barnyard grass (BG) [10] = assay: Pre-emergence herbicide test; assay type: in vivo; settings: Echinochloa crus-galli, 336 h, 8 lb/acre, two weeks after treatment
Procedure, shortened: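 Greenhouse pre-emergence spray test: pots seeded one day before treatment received compound at rates of 8 or 4 lb/acre (38 gal/acre). Visual injury/control scores for Echinochloa crus-galli taken at two weeks, with watering by sub-irrigation only.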

Crabgrass (CG) [11] = assay: Pre-emergence herbicide test; assay type: in vivo, Digitaria sanquinalis; settings: Digitaria sanguinalis, pre-emergence, 336 h; 8 lb/acre; two weeks after treatment
Procedure, shortened: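 Crabgrass (Digitaria sanquinalis) was surface seeded in 3' plastic pots of potting soil, covered with screened soil, and watered by sub-irrigation in greenhouse trays. Pots were seeded one day before spraying in a hood with a moving belt and fixed nozzle. Plants stayed in the greenhouse on sub-irrigation, and pre-emergence control was rated visually two weeks after treatment.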

[12] = tested on: Yellow foxtail grass (YF); assay: Post-emergence herbicide test; assay type: in vivo, Setaria glauca; settings: Setaria, 336 h, two weeks after treatment; for pest or weed control at 8966.8 g/ha: 8 lb/acre
Procedure, shortened: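 Visual rating of injury/control made 2 weeks post-spray. Seedlings at a uniform growth stage in soil-filled pots received a hood spray of 8 lbs/acre active compound, 38 gallons/acre volume, with a 4 lbs/acre rate also formulated. Watering was by sub-irrigation only.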

Turnip (TP) [13] = assay: Pre-emergence herbicide test; assay type: in vivo, Brassica sp.; settings: Brassica rapa, pre-emergence, 336 h; 8 lb/acre; two weeks after treatment
Procedure, shortened: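 In this pre-emergence greenhouse test, turnip was seeded on the surface of potting soil in 3' plastic pots, lightly covered with screened soil, and watered from below. One day later the pots were sprayed in a belt-fed spray hood. Watering continued only by sub-irrigation, and percent control was visually scored two weeks after treatment.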

Corn (CN) [14] = assay: Post-emergence herbicide test; assay type: in vivo; settings: Zea mays, 336 h, two weeks after treatment; for pest or weed control at 8966.8 g/ha: 8 lb/acre
Procedure, shortened: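 Greenhouse seedlings grown in potting soil and sprayed post-emergence at 8 lbs compound/acre (formulations also made for 4 lbs/acre) in 38 gallons/acre spray volume. Watering by sub-irrigation only. Injury or control rated visually two weeks after treatment.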

[15] = tested on: Yellow foxtail grass (YF); assay: Pre-emergence herbicide test; assay type: in vivo, Setaria glauca; settings: Setaria, 336 h, 8 lb/acre, two weeks after treatment
Procedure, shortened: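 Visual rating of injury/control made two weeks after a pre-emergence spray of 8 or 4 lbs active per acre (38 gal/acre) onto pots seeded the previous day. Greenhouse watering by sub-irrigation only.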

Corn (CN) [16] = assay: Pre-emergence herbicide test; assay type: in vivo; settings: Zea mays, 336 h, 8 lb/acre, two weeks after treatment
Procedure, shortened: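 Visual injury/control ratings were made 2 weeks post-spray on corn pots seeded (4 seeds, seed-diameter depth) the day before treatment. Application was a belt-hood spray of 38 gal/acre delivering 8 lbs active per acre, with a 4 lbs/acre rate also formulated. Watering was by sub-irrigation throughout.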

Cotton (CT) [17] = assay: Post-emergence herbicide test; assay type: in vivo, Gossypium hirsutum var. DPL smooth leaf; settings: Gossypium hirsutum, post-emergence, 336 h, two weeks after treatment; for pest or weed control at 8966.8 g/ha: 8 lb/acre
Procedure, shortened: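 This greenhouse post-emergence test measured how well spray treatments controlled cotton. Seedlings of Gossypium hirsutum var. DPL smooth leaf, with expanded cotyledons and a first true leaf 1' in length, were sprayed with 50 ml formulations in a belt-fed spray hood. They were then returned to the greenhouse and watered only by sub-irrigation. Injury was scored visually as % control after two weeks.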

Amaranth pigweed (PW) [18] = assay: Post-emergence herbicide test; assay type: in vivo, Amaranthus retroflexus; settings: 336 h, two weeks after treatment; for pest or weed control at 8966.8 g/ha: 8 lb/acre
Procedure, shortened: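 Visual injury or control ratings were made two weeks after spraying, with greenhouse watering by sub-irrigation only. Treatment was post-emergence, when pigweed seedlings had 1 or 2 true leaves, at 8 lbs active compound per acre (4 lbs/acre formulations also made) in a 38 gallons-per-acre spray volume.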

Amaranth pigweed (PW) [19] = assay: Pre-emergence herbicide test; assay type: in vivo, Amaranthus retroflexus; settings: 336 h, 8 lb/acre, two weeks after treatment
Procedure, shortened: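 Visual injury or control ratings were made at two weeks on pre-emergence pots, sub-irrigated in the greenhouse. Seeds were sown a day before a hood spray delivering 8 lbs/acre (or 4 lbs/acre) of compound in 38 gallons per acre.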

Row | Structure (SMILES) | pest or weed control at 8966.8 g/ha (Bean (BN) [1]) [%] | herbicidal effectiveness / selectivity, in words [2] | pest or weed control at 8966.8 g/ha (Cotton (CT) [3]) [%] | pest or weed control at 8966.8 g/ha (Barnyard grass (BG) [4]) [%] | pest or weed control at 8966.8 g/ha (Crabgrass (CG) [5]) [%] | pest or weed control at 8966.8 g/ha (Johnson grass (JG) [6]) [%] | pest or weed control at 8966.8 g/ha (Johnson grass (JG) [7]) [%] | pest or weed control at 8966.8 g/ha (Bean (BN) [8]) [%] | pest or weed control at 8966.8 g/ha (Turnip (TP) [9]) [%] | pest or weed control at 8966.8 g/ha (Barnyard grass (BG) [10]) [%] | pest or weed control at 8966.8 g/ha (Crabgrass (CG) [11]) [%] | pest or weed control at 8966.8 g/ha [12] [%] | pest or weed control at 8966.8 g/ha (Turnip (TP) [13]) [%] | pest or weed control at 8966.8 g/ha (Corn (CN) [14]) [%] | pest or weed control at 8966.8 g/ha (Corn (CN) [16]) [%] | pest or weed control at 8966.8 g/ha (Cotton (CT) [17]) [%] | pest or weed control at 8966.8 g/ha (Amaranth pigweed (PW) [18]) [%] | pest or weed control at 8966.8 g/ha (Amaranth pigweed (PW) [19]) [%] | further results
1 | O=C(Nc1ccc(Cl)c(Cl)c1)Nc1nnc(C(F)(F)F)s1 [Example 16] | 80 | more selective when applied to a certain crop or weed species | 30 | 20 | 20 | 20 | 10 | 40 | 40 | 10 | 10 | 20 | 30 | 20 | 30 | 20 | – | – | pest or weed control at 8966.8 g/ha [15]: 10%
2 | Cc1nnc(NC(=O)N(C)C)s1 [Example 19] | 80 | The converse of this relationship | 30 | 10 | 20 | 20 | 20 | 50 | 50 | 10 | 10 | 20 | 20 | 20 | 80 | 40 | 40 | 10 | –
3 | CNC(=O)Nc1nnc(CC(C)C)s1 [Example 21] | 100 | more selective when applied to a certain crop or weed species | 10 | 20 | 30 | 30 | 10 | 60 | 20 | 10 | 20 | – | 20 | 20 | 10 | 50 | 20 | 60 | –
4 | CNC(=O)Nc1nnc(SC)s1 [Example 26] | 30 | extremely effective when applied to a variety of crops and weed species | 100 | 60 | 100 | 100 | – | 100 | 100 | 50 | 100 | 90 | 30 | 40 | 50 | 90 | 100 | – | pest or weed control at 2241.7 g/ha (Barnyard grass (BG) [4]; 2 lb/acre): 10%; pest or weed control at 4483.4 g/ha (Barnyard grass (BG) [4]; 4 lb/acre): 100%; pest or weed control (Crabgrass (CG) [5]; 2 lb/acre): 50%; pest or weed control at 4483.4 g/ha (Crabgrass (CG) [5]; 4 lb/acre): 100%; pest or weed control (Johnson grass (JG) [6]; 2 lb/acre): 30%; pest or weed control at 4483.4 g/ha (Johnson grass (JG) [6]; 4 lb/acre): 80%; pest or weed control at 2241.7 g/ha (Bean (BN) [8]; 2 lb/acre): 100%; pest or weed control at 4483.4 g/ha (Bean (BN) [8]; 4 lb/acre): 100%; pest or weed control at 2241.7 g/ha (Turnip (TP) [9]; 2 lb/acre): 60%; pest or weed control at 4483.4 g/ha (Turnip (TP) [9]; 4 lb/acre): 100%; pest or weed control ([12]; 2 lb/acre): 60%; pest or weed control at 4483.4 g/ha ([12]; 4 lb/acre): 100%; pest or weed control (Corn (CN) [14]; 2 lb/acre): 20%; pest or weed control at 4483.4 g/ha (Corn (CN) [14]; 4 lb/acre): 100%; pest or weed control at 2241.7 g/ha (Amaranth pigweed (PW) [18]; 2 lb/acre): 90%; pest or weed control at 4483.4 g/ha (Amaranth pigweed (PW) [18]; 4 lb/acre): 100%; pest or weed control at 2241.7 g/ha (Cotton (CT) [17]; 2 lb/acre): 100%; pest or weed control at 4483.4 g/ha (Cotton (CT) [17]; 4 lb/acre): 90%
